The values below come from the Kinase Knowledgebase extract (Sharma et al. 2016).

In experiment [1] the target is EGFR (human) (UniProt P00533).
Experiment [2] addresses EGFR (human) (UniProt P00533). The source holds these as a separate data set.
Experiment [3] concerns the target EGFR (UniProt P00533).
In experiment [4] the target is EGFR (human) (UniProt P00533). The settings on record: a431.
Experiment [5] deals with CDK2 (UniProt P24941). Nature of the experiment: Enzyme Assay.
Experiment [6] has as its target CDK2 (UniProt P24941). The experiment in a line: Enzyme Assay. This is another data set of the same source.
The subject of experiment [7] is MAPK14 (sprague-dawley rat). The experiment in a line: p38-mediated TNF-alpha Inhibition (Sprauge-Dawley Rats). The settings on record: dose or concentration not given here.
In experiment [8] the target is EGFR (human) (UniProt P00533). The source holds these as a separate data set.
In experiment [9] the target is EGFR (human) (UniProt P00533). The conditions noted are these: a431. This is another data set of the same source.
The target of experiment [10] is MAPK14 (human) (UniProt Q16539). Nature of the experiment: Enzyme Assay.
Experiment [11] has the same target. Nature of the experiment: Enzyme Assay. This is another data set of the same source.
The target of experiment [12] is EGFR (mouse) (UniProt P00533). The settings on record: nih3t3/c7.
Experiment [13] deals with EGFR (mouse) (UniProt P00533). The conditions noted are these: balb/mk cells.
The target of experiment [14] is PIK3CA (human), P42336 [Wild-Type]. The experiment in a line: Assessment of Proliferation of NZB5 Cells Expressing Wild-Type PIK3CA Kinase.
Experiment [15] deals with EGFR (UniProt P00533). This is another data set of the same source.
The target in experiment [16] is ROCK2 (human) (UniProt O75116). Nature of the experiment: Enzyme Assay.
Experiment [17] addresses ROCK2 (human) (UniProt O75116). The experiment in a line: Enzyme Assay. This is another data set of the same source.
Experiment [18] has as its target EGFR (human) (UniProt P00533). The source holds these as a separate data set.
For a further experiment, the target named is EGFR (murine) (UniProt P00533). The settings on record: nih3t3.
The target of another experiment is MAPK14 (UniProt Q16539). The experiment in a line: p38 Binding Asssy.
Experiment [19] addresses EGFR (UniProt P00533). The source holds these as a separate data set.
The target of experiment [20] is ROCK2 (human) (UniProt O75116).
Experiment [21] deals with MAPK14 (human) (UniProt Q16539). The experiment in a line: p38 --- TNF Inhibition (PBMC cells).
Experiment [22] has the same target. The experiment in a line: p38 --- IL-1 Inhibition (PBMC cells).
Experiment [23] concerns the target EGFR (UniProt P00533). The source holds these as a separate data set.
Experiment [24] addresses EGFR (UniProt P00533). The source holds these as a separate data set.
In the next experiment the target is PIK3CA (UniProt P42336). The experiment in a line: PIK3CA Inhibition.
Experiment [25] concerns the target EGFR (mouse) (UniProt P00533). The conditions noted are these: swiss 3t3 fibroblast.
The target of experiment [26] is EGFR (human) (UniProt P00533). This is another data set of the same source.
For experiment [27], the target named is EGFR (human) (UniProt P00533). The settings on record: a431. The source holds these as a separate data set.
Experiment [28] deals with EGFR (human) (UniProt P00533). The conditions noted are these: a549.

pIC50: −log10 of the molar value.

Sequence of ROCK2 (human) (O75116 whole entry, looked up): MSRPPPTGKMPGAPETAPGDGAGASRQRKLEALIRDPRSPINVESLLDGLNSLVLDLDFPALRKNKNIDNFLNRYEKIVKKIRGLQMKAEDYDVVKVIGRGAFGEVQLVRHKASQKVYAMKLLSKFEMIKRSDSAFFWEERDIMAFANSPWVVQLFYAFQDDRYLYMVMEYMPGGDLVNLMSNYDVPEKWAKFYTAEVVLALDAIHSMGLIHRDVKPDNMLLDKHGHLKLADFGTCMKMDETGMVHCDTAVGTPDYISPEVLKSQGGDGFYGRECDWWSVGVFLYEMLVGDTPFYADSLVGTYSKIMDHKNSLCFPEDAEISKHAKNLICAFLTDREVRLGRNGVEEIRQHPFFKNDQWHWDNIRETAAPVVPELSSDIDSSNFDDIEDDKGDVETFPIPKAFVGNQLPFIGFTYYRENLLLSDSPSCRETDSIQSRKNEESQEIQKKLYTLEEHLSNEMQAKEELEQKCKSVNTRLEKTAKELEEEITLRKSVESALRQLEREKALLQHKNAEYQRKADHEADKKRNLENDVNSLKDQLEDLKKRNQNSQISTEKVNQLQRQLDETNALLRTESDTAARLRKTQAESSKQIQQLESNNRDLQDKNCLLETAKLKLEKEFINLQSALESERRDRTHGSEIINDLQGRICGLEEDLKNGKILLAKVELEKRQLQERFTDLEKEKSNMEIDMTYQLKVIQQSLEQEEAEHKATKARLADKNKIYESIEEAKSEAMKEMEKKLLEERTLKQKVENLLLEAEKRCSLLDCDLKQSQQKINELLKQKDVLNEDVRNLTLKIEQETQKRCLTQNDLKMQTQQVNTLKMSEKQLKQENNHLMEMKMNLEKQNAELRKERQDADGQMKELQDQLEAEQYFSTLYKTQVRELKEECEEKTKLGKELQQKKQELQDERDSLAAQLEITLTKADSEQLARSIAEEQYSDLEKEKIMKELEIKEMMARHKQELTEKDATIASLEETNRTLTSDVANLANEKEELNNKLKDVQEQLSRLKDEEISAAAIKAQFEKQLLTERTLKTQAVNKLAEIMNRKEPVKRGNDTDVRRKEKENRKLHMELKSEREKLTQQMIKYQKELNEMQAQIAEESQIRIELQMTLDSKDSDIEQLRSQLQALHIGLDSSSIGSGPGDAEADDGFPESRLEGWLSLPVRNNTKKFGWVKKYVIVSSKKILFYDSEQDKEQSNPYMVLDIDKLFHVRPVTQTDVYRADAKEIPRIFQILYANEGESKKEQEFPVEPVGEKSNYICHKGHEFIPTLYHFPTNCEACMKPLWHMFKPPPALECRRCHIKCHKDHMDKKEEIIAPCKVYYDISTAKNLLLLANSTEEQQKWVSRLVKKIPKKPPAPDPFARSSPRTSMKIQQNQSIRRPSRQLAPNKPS
Sequence of MAPK14 (human) (Q16539 whole entry, looked up): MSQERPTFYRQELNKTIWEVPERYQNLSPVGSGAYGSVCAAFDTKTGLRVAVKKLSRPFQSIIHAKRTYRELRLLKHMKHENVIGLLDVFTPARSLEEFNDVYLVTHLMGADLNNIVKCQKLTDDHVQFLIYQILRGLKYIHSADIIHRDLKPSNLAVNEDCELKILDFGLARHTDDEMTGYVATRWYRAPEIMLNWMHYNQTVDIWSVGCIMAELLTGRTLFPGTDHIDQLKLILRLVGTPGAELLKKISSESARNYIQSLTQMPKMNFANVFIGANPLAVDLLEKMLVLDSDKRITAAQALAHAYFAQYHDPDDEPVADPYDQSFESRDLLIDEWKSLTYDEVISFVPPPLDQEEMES
Sequence of EGFR (P00533 whole entry, looked up): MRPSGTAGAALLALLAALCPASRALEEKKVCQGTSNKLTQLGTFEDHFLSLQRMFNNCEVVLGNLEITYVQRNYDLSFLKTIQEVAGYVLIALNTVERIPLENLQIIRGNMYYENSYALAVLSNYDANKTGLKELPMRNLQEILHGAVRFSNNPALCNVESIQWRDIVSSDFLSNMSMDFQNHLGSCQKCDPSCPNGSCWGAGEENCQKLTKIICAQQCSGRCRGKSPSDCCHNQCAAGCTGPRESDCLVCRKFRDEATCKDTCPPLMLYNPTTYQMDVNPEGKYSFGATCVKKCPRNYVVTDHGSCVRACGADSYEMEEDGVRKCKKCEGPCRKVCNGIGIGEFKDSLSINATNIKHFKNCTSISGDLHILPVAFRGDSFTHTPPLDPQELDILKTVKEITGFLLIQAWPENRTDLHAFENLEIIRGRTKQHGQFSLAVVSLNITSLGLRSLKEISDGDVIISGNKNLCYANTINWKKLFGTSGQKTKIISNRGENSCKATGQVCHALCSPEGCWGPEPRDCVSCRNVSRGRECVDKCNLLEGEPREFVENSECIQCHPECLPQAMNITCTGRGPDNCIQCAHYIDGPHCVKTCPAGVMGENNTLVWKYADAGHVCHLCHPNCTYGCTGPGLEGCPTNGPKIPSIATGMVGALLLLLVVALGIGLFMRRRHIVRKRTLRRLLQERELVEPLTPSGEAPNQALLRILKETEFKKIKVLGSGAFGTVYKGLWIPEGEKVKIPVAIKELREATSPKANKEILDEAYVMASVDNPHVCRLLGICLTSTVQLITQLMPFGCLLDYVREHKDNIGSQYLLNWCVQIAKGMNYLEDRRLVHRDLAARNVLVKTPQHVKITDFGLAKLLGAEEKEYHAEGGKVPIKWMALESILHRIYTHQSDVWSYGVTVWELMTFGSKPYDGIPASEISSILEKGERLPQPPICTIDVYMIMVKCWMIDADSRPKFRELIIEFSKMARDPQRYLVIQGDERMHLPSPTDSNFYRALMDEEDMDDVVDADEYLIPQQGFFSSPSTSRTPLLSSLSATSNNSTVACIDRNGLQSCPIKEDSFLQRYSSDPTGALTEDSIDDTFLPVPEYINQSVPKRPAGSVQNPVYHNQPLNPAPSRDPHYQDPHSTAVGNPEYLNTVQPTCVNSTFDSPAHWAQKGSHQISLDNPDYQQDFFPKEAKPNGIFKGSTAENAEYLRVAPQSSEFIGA
Sequence of EGFR (human) (P00533 whole entry, looked up): as above
Sequence of MAPK14 (Q16539 whole entry, looked up): as the sequence (Q16539 whole entry, looked up) above

For the molecule `Nc1nc(Nc2cccc(Cl)c2)c2c(n1)[nH]c1ccccc12`, the pIC50 at EGFR (human) [1] was 8.22.

`C=CC(=O)Nc1ccc(-n2nc(-c3ccc(Cl)c(Cl)c3)c3c(N)ncnc32)cc1` had a pIC50 at EGFR (human) [2] above 7.00.

On EGFR [3], `C=CC(=O)c1ccc2ccccc2c1` showed a pIC50 of 4.90.

At EGFR (human) [4], `CNC(=O)c1ccc(S(=O)(=O)Oc2ccc(/C=C/[N+](=O)[O-])cc2)cc1` gave a pIC50 of 4.43.

On to `COc1ccc2c(-c3ccc(N4CCC(N)C4)cc3)nc(N)nc2c1C(C)C` (stereo not given), for which the values for the pIC50 against CDK2 [5] and against CDK2 [6] were 6.53 and 5.59, respectively.

On to `CNCC#Cc1cccc(C(=O)c2cnn(-c3ccc(F)cc3)c2N)c1`, for which, in experiment [7], the inhibition was 86%.

`COCC=CC(=O)Nc1ccc2ncnc(Nc3cccc(Br)c3)c2c1`: the pIC50 was 5.95 at EGFR (human) [8] and 5.07 against EGFR (human) [9].

`Cc1ccc(-c2ccnc(C(C)(C)O)n2)cc1-n1c(C)nc(OCc2ncc(F)cc2F)c(Cl)c1=O`: the pIC50 was 7.40 on MAPK14 (human) [10] and 6.25 against MAPK14 (human) [11].

In the case of `Cc1cnc2cc3nc(-c4ccccc4)[nH]c3c(C)c2n1`, the pIC50 in the experiment with EGFR (mouse) [12] is below 4.00.

In the experiment with EGFR (mouse) [13], `C[C@H](NC(=O)[C@H](C)NC(=O)c1ccc(S(=O)(=O)Oc2ccc(/C=C/[N+](=O)[O-])cc2)cc1)C(=O)O` showed a pIC50 below 4.30.

As for `Oc1cccc2c1nc(C(F)F)n2-c1nc(N2CCOCC2)cc(N2CCOCC2)n1`, the pIC50 in experiment [14] is 7.00.

Consider `C[C@H](NC(=O)c1ccc(S(=O)(=O)Oc2ccc(/C=C/[N+](=O)[O-])cc2)cc1)C(=O)N[C@@H](C)C(=O)OC(C)(C)C`, for which, at EGFR (human) [4], the pIC50 is 4.43.

On to `COc1cc2ncnc(Nc3ccc(F)c(Cl)c3)c2cc1OCCN1CCOCC1`, for which the pIC50 against EGFR [15] was 8.00.

On to `NCc1ccc(C(=O)Nc2ccncc2F)cc1-c1cccc(C(=O)Nc2ccc(C(=O)O)cc2)c1`, for which the pIC50 against ROCK2 (human) [16] was 9.00; against ROCK2 (human) [17], 8.39.

As to `COc1cc2ncnc(Oc3ccc(Br)cc3F)c2cc1OC`, the pIC50 against EGFR (human) [18] is 5.23.

Turning to `Nc1nc(Nc2ccccc2)c2c(n1)[nH]c1ccccc12`, the pIC50 against EGFR (human) [1] is 6.83.

`N#Cc1ccc(NC(=S)Nc2ccc(S(=O)(=O)N3CCCCC3)cc2)cc1` had a negative logarithm of the IC50 (pIC50) with EGFR (murine) below 4.00.

For the molecule `[N-]=[N+]=Nc1ccc(-c2nc(-c3cccc(I)c3)c(-c3ccncc3)[nH]2)cc1`, the pIC50 at MAPK14 is 6.19.

On EGFR [19], `Cn1c(=O)c(-c2c(Cl)cccc2Cl)cc2cnc(Nc3ccccc3)nc21` had a pIC50 of 7.11.

`COc1cccc([C@@H](C)NC(=O)c2ccc3c(c2)oc2c(C)nccc23)c1` gave a negative logarithm of the IC50 (pIC50) on ROCK2 (human) [20] of 8.58.

In the experiment with EGFR (mouse) [13], `C[C@H](NC(=O)c1ccc(S(=O)(=O)Oc2ccc(/C=C/[N+](=O)[O-])cc2)cc1)C(=O)N[C@@H](C)C(=O)NCCN` showed a pIC50 below 4.30.

Regarding `Cc1cccc(Sc2ccc3c(-c4c(Cl)cccc4Cl)c(=O)ncn3n2)c1`, the pIC50 on MAPK14 (human) [21] is 6.55; on MAPK14 (human) [22], 6.68.

Turning to `CC(C)OC(=O)Cc1cccc(NC(=O)c2cccc(-c3cc(C(=O)Nc4ccncc4F)ccc3CN)c2)c1`, the negative-log IC50 (pIC50) against ROCK2 (human) [16] and at ROCK2 (human) [17] was above 9.00 each time.

Molecule `CCn1cnc2c(Nc3cccc(Cl)c3)nc(N[C@@H]3CCCC[C@@H]3N)nc21` gave a pIC50 on EGFR [23] below 5.00.

In turn, `O=C(c1c[nH]c2ccccc12)N1CCC(Cc2ccccc2)CC1` showed a pIC50 against EGFR [24] below 3.30.

As for `CN(C/C=C/C(=O)Nc1cccc(-n2nc(-c3ccc(Cl)cc3)c3c(N)ncnc32)c1)C1CC1`, the pIC50 against EGFR (human) [2] is 6.00 to 7.00.

For the molecule `CCCCCCCCCCCCCCCCCCOC[C@H](COP(=O)(O)O[C@H]1[C@H](O)[C@@H](O)CC[C@H]1O)OC`, the negative-log IC50 (pIC50) on PIK3CA is 6.10.

As for `O=C(O)Cc1c(SSc2[nH]c3ccccc3c2CC(=O)O)[nH]c2ccccc12`, the pIC50 with EGFR (mouse) [25] is below 4.30.

`O=C(O)C[C@@H](NC(=O)c1ccc2c(c1)OCc1cnccc1-2)c1ccccc1` showed a pIC50 against ROCK2 (human) [20] of 6.29.

`COc1cc(OC)c2c(=O)n(-c3cccc(C(=O)NC4CCCC4)c3)ccc2c1`: the pIC50 against EGFR (human) [26] is 5.67; against EGFR (human) [27], 4.82; on EGFR (human) [28] it was 4.73.

`CCn1cnc2c(Nc3cccc(Cl)c3)nc(N[C@H]3CC[C@@H](N)CC3)nc21` gave a pIC50 on EGFR [23] of 5.28.

On to `[N-]=[N+]=Nc1cccc(-c2ncn(CCCNC(=O)c3ccc(I)cc3)c2-c2ccncc2)c1`, for which the pIC50 on MAPK14 was 7.34.

One may read the pIC50 as the IC50 on a negative log10 scale, so that one unit is a factor of ten. The inhibition is the relative decrease from the control value, in per cent. The low end stands for a weak effect, the high end for a strong effect.
